Test results as given in publication PMC8781304, “Arene-Ruthenium(II) Complexes with Carbothiamidopyrazoles as a Potential Alternative for Antibiotic Resistance in Human” (Molecules, 2022).
Read-outs that look alike come from different tables or passages of the source.

What was measured:
[1] = system: WM-115 melanoma cell line; details: cited from earlier work
S. aureus ATCC 29213 [2] = assay: Time-kill test; assay type: cell-based, Staphylococcus aureus; details: 1 × MIC
Experimental: (§1) The time-kill experiments were performed as described previously. Briefly, inocula were prepared in TSB medium (TSB; […] BTL Sp. z o.o., Łódź, Poland). All samples were incubated at 35 °C and 80 rpm for varied time intervals (2, 4, 6, 12, 18, 24, 48h). The percentage of dead cells was calculated according to the growth control by determining the number of living cells (CFU/mL) of each tube using the agar plate count method. Samples were immediately serially diluted ten-fold in 0.01 M phosphate buffered saline (PBS, Bimed Lublin S.A., Lublin, Poland) at pH 7.0 and 10 μL aliquots were spot-inoculated in duplicate onto MHA plates. Agar plates were incubated at 37 °C overnight before determining the viable count. Two independent experiments were carried out.

[3] = system: Staphylococcus aureus ATCC 29213; assay: Fluorescence microscopy, Hoechst 33258 / propidium iodide viability; assay type: cell-based; details: S. aureus ATCC 29213; MIC concentration, 24 h
Experimental: (§2) Staphylococcus aureus ATCC 29213 and Staphylococcus epidermidis ATCC 12228 strains were treated with tested compounds 2a–2d and 3a–3d at a concentration 1 × MIC for 24h, while untreated cells were used as a growth control. After incubation, the cells were harvested and a suspension of 1 × 10^5 cells/mL in PBS was prepared. Following this, 1 µl of the fluorescent dyes Hoechst 33258 and propidium iodide (15 µg/mL each) (Sigma, St. Louis, MO, USA) were added. The obtained mixture was incubated in the dark at room temperature for 15–20 min. After incubation, the cell suspensions, placed on glass slides, were analyzed under an Olympus IX 70 fluorescence microscope (Shinjuku, Tokyo, Japan), using a 360–370 nm UV filter. Photos were taken at 10 × 20 magnification.

[4] = system: Staphylococcus epidermidis ATCC 12228; assay: as above; assay type: cell-based; details: S. epidermidis ATCC 12228; MIC concentration, 24 h
Experimental: as §2

[5] = system: Supercoiled plasmid pUC57 DNA; parameters: method as in PMID 35540189; details: studied previously; cited from earlier work
S. aureus ATCC 29213 [6] = assay: Synergy with oxacillin and vancomycin, partial checkerboard broth microdilution; assay type: cell-based, Staphylococcus aureus; details: S. aureus ATCC 29213; for FIC (Oxa) / FIC (Van): MIC antibiotic in combination/MIC antibiotic alone; for MIC Oxa in Combination: oxacillin with the complex at ½ MIC (NH4PF6 250 µg/mL); for MIC Van in Combination: vancomycin with the complex at ½ MIC (NH4PF6 250 µg/mL)
[7] = system: S. epidermidis ATCC 12228; assay: Cell lysis (bacteriolysis, OD600); assay type: cell-based, Staphylococcus epidermidis; details: 1 × MBC
[8] = system: S. epidermidis ATCC 12228; assay: Synergy with oxacillin and vancomycin, partial checkerboard broth microdilution; assay type: cell-based, Staphylococcus epidermidis; details: S. epidermidis ATCC 12228; for FIC (Oxa) / FIC (Van): MIC antibiotic in combination/MIC antibiotic alone; for MIC Oxa in Combination: oxacillin with the complex at ½ MIC (NH4PF6 250 µg/mL); for MIC Van in Combination: vancomycin with the complex at ½ MIC (NH4PF6 250 µg/mL)
[9] = system: S. epidermidis ATCC 12228; assay: Time-kill test; assay type: cell-based, Staphylococcus epidermidis; details: 1 × MIC
Experimental: as §1

[10] = read-out: IC50 (cytotoxicity), WM-115 melanoma cell line

| Structure (SMILES) | IC50 [1] | Time-kill: bacteriostatic or bactericidal (S. aureus ATCC 29213 [2]) | Change in bacterial viability (Hoechst 33258 / PI fluorescence) [3] | Change in bacterial viability (Hoechst 33258 / PI fluorescence) [4] | Nicking of DNA Form I into Form II and III [5] | Correlation with Oxa and Van (synergy), in words (S. aureus ATCC 29213 [6]) | FIC (Oxa) (S. aureus ATCC 29213 [6]) | FIC (Van) (S. aureus ATCC 29213 [6]) | MIC Oxa in Combination (S. aureus ATCC 29213 [6]) | MIC Van in Combination (S. aureus ATCC 29213 [6]) | Cell lysis, change of OD600 [7] | Correlation with Oxa and Van (synergy), in words [8] | FIC (Oxa) [8] | FIC (Van) [8] | MIC Oxa in Combination [8] | MIC Van in Combination [8] | Time-kill: bacteriostatic or bactericidal [9] | IC50 [1, 10] |
| --- | --- | --- | --- | --- | --- | --- | --- | --- | --- | --- | --- | --- | --- | --- | --- | --- | --- | --- |
| N.N.[Cl][Pt][Cl] [cisplatin, reference compound] | 18.2 µM | – | – | – | – | – | – | – | – | – | – | – | – | – | – | – | – | – |
| CCc1cc(CC)n(C(N)=S)n1.Cc1ccc(C(C)C)cc1.[Cl-].[Cl][Ru+] [Compound 2b] | – | bacteriostatic | Less changes in cell survival | Less changes in cell survival | nick the DNA Form I into Form II and III | synergistic effects | 0.5 | 0.5 | 0.125 µg/mL | 0.25 µg/mL | not found to change OD600 values | synergistic effect in all tested configurations | 0.06 | 0.03 | 0.015 µg/mL | 0.015 µg/mL | bacteriostatic | – |
| Cc1cc(O)n(C(N)=S)n1.Cc1ccc(C(C)C)cc1.[Cl-].[Cl][Ru+] [Compound 2d] | – | – | no significant changes in the viability | no significant changes in the viability | nick the DNA Form I into Form II and III | – | 0.5 | 1 | 0.125 µg/mL | 0.50 µg/mL | – | – | 0.5 | 1 | 0.125 µg/mL | 0.5 µg/mL | – | 7.9 µM |
| Cc1ccc(C(C)C)cc1.NC(=S)n1nc(-c2ccccc2)cc1O.[Cl-].[Cl][Ru+] [Compound 2c] | – | bacteriostatic | greatest changes in bacterial viability | greatest changes in bacterial viability | – | synergistic effects | 0.5 | 0.5 | 0.125 µg/mL | 0.25 µg/mL | quite moderate decrease in OD600 | – | 0.25 | 1 | 0.06 µg/mL | 0.5 µg/mL | bactericidal | 26.7 µM |
